According to patent publication US9850247B2 (Almac Discovery Limited, priority 2013, dated 2017):

Assays:
[1] = test system: phospho-cdc2 (Tyr15) in HT-29 cells; experiment: Effect on Cdc2 phosphorylation at Tyr15, Cell-Based ELISA Base Kit (Method 3); conditions: Homo sapiens, HT-29, 8 h, eight hours incubation, normalized to total cdc2, read-out: HT29 pCDC2 method 3
Protocol: Method 3: Determining the Effect of Compounds on the Cdc2 phosphorylation at Tyr15, using a Cell-Based ELISA Base Kit (R&D Systems, KCB001)
The colorectal cancer cell line, HT-29 was purchased from the ATCC and maintained in McCoy's 5 A medium (Gibco®, Life technologies) supplemented with 10% Foetal Calf Serum (FCS).
The cells were trypsinised and counted, 100 μL of 8000 cells was seeded into each well of a clear-bottom black 96-well microplate and incubated overnight to allow adherence to the surface, at 37° C. and 5% CO2 in a cell culture incubator.
Test compounds were formulated in DMSO and diluted in cell culture medium supplemented with FCS. Grow medium was removed from cells and medium containing compounds dilutions was added to each well. The plate was returned to the incubator for an additional eight hours of incubation at 37° C. and 5% CO2.
Post incubation cells were fixed by replacing the compounds supplemented medium with 100 μL of 4% formaldehyde in 1× phosphate buffered saline (PBS), for 20 minutes at room temperature. Formaldehyde solution was removed and cells were washed three times with PBS. The Cell-Based ELISA assay (R&D Systems) was carried out immediately after cell fixation or the plate was sealed and fixed cells were stored in PBS at 4° C. until required (no more than two weeks).
To continue the assay, PBS was removed and cells were washed 3 times for 5 minutes with 200 μL of 1× wash buffer. Each wash step was carried out with gentle shaking. Following washes, 100 μL of 0.6% H2O2 in 1× wash buffer (quenching buffer) was added, plate was sealed and incubated for 20 minutes at room temperature. Post incubation cells were washes 3 times for 5 minutes with 200 μL of 1× wash buffer, with gentle shaking. 100 μL of blocking buffer was added to each well, the plate was re-sealed and incubated at room temperature for 1 h.
After blocking, cells were washed as described above. A primary antibody mixture was prepared by mixing the two primary antibodies, a rabbit monoclonal antibody for phospho-cdc2 (Tyr15) (Cell Signaling, #4539) and mouse monoclonal antibody for total cdc2 p34 (Santa Cruz Biotechnology, sc-54), diluted 1:25 and 1:50 in blocking buffer, respectively. 60 μL of primary antibody mixture was added to each well, the plate was sealed and incubated overnight at 4° C.
The primary antibodies were removed and cells were washed as previously described. 100 μL of secondary antibody mixture, containing horseradish-peroxidase (HRP)-conjugated goat anti-rabbit IgG and alkaline phosphatase (AP)-conjugated goat anti-mouse IgG, diluted 1:100 in blocking buffer, was added to each test well. The plate was re-sealed and incubated for 2 hours at room temperature.
The secondary antibodies were removed and cells washed 2 times with wash buffer, followed by 2 washes with PBS. Each wash step was carried out for 5 minutes with gentle shaking. PBS was removed and 75 μL of fluorogenic substrate for HRP (substrate F1) added to each well. The plate was sealed and incubated for 1 h at room temperature, in the dark. 75 μL of fluorogenic substrate for AP (substrate F2) was added directly to each well, plate re-sealed and incubated for additional 40 minutes at room temperature, protected from direct light.
Following incubation fluorescence from each well was read at 600 nm (signal from substrate 1, phosphorylated protein) and then at 450 nm (signal from substrate 2, total protein).
The percentage of phospho-cdc2 was calculated compared to DMSO control, normalized to the total cdc2 and plotted versus the concentration of inhibitor, using GraphPad Prism. Data was fitted using a non-linear regression analysis and EC50 values generated.

Wee-1 kinase = biological target: T1, Wee-1 kinase (Homo sapiens, UniProt P30291); experiment: Measurement of Wee-1 kinase activity (ADP-Glo luminescent kit); assay type: biochemical
T1 construct: purchased Invitrogen PV3817
T1 sequence (P30291 whole entry): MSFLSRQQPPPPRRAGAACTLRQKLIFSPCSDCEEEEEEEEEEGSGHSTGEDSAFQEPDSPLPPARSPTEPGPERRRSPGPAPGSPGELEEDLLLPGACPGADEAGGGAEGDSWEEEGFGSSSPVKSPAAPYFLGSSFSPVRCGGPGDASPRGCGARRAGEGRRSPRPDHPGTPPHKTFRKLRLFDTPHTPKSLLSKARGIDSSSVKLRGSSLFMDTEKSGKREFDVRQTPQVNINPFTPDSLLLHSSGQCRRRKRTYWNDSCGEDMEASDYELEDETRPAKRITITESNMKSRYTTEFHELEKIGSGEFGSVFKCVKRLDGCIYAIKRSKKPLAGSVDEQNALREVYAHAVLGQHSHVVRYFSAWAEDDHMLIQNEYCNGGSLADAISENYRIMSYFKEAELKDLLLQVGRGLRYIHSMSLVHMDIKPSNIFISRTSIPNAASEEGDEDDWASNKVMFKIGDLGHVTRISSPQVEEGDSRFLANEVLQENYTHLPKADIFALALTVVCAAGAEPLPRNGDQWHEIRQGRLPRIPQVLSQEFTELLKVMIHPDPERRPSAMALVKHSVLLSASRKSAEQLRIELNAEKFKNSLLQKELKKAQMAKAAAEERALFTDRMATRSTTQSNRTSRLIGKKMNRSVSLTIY
Method in brief: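 Activated Wee-1 was pre-incubated 30 min at RT with compound in 40 mM Tris-HCl, 20 mM MgCl2, 0.1 mg/mL BSA and 2 mM DTT. The reaction was started with an aliquot of 2.0 μg/mL poly(Lys,Tyr 4:1) plus 30 μM ATP and run 1 h at RT. ADP-Glo luminescence gave IC50 by non-linear fit.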

[2] = CLint estimates using human liver microsomes (Method 4); assay type: in vitro ADME; conditions: pH 7.4, 1 μM compound, read-out: Mics - CLint (HLM CLint)
Method in brief: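 Compound at 1 μM (0.1% DMSO) incubated with human liver microsomes (0.5 mg protein/mL) in 0.1 M phosphate pH 7.4 at 37 °C, started with 1 mM NADPH. Samples taken 2–50 min, quenched in methanol, measured by LC/MS/MS (MRM). Half-life and CLint derived from the slope of ln peak area versus time.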

SMILES	EC50 [1] [nM]	IC50 (Wee-1 kinase) [nM]	microsomal CLint at 1 μM [2] [µL/min/mg]
C[C@@H]1CN(c2ccc(Nc3ncc4c(n3)N(C)CN(c3c(Cl)cccc3Cl)C4=O)cc2CO)CCN1 [Example 38, (R)-3-(2,6-dichlorophenyl)-7-((3-(hydroxymethyl)-4-(3-methylpiperazin-1-yl)phenyl)amino)-1-methyl-2,3-dihydropyrimido[4,5-d]pyrimidin-4(1H)-one]	100 to 1000	≤ 10	≤ 15
C[C@@H]1CN(c2ccc(Nc3ncc4c(n3)N(C)CN(c3c(Cl)cccc3Cl)C4=O)cc2CO)CCN1C [Example 46, (R)-3-(2,6-dichlorophenyl)-7-((4-(3,4-dimethylpiperazin-1-yl)-3-(hydroxymethyl)phenyl)amino)-1-methyl-2,3-dihydropyrimido[4,5-d]pyrimidin-4(1H)-one]	100 to 1000	≤ 10	≤ 15
Cc1cc(Nc2ncc3c(n2)N(C)CN(c2c(F)cccc2Cl)C3=O)ccc1N1CCNCC1 [Example 55, 3-(2-chloro-6-fluorophenyl)-1-methyl-7-((3-methyl-4-(piperazin-1-yl)phenyl)amino)-2,3-dihydropyrimido[4,5-d]pyrimidin-4(1H)-one]	100 to 1000	≤ 10	≤ 15
COC[C@@H]1CN(c2ccc(Nc3ncc4c(n3)N(C)CN(c3c(Cl)cccc3Cl)C4=O)cc2)CCN1 [Example 61, (S)-3-(2,6-dichlorophenyl)-7-((4-(3-(methoxymethyl)piperazin-1-yl)phenyl)amino)-1-methyl-2,3-dihydropyrimido[4,5-d]pyrimidin-4(1H)-one]	100 to 1000	10 to 100	≤ 15
CN1CN(c2c(Cl)cccc2Cl)C(=O)c2cnc(Nc3ccc(N4CCN(C)C(C)(C)C4)cc3)nc21 [Example 63, 3-(2,6-dichlorophenyl)-1-methyl-7-((4-(3,3,4-trimethylpiperazin-1-yl)phenyl)amino)-2,3-dihydropyrimido[4,5-d]pyrimidin-4(1H)-one]	100 to 1000	≤ 10	15 to 50
CCN1CCN(c2ccc(Nc3ncc4c(n3)N(C)CN(c3c(Cl)cccc3Cl)C4=O)cc2CO)CC1 [Example 72, 3-(2,6-dichlorophenyl)-7-((4-(4-ethylpiperazin-1-yl)-3-(hydroxymethyl)phenyl)amino)-1-methyl-2,3-dihydropyrimido[4,5-d]pyrimidin-4(1H)-one]	100 to 1000	≤ 10	≤ 15
CN1Cc2cc(Nc3ncc4c(n3)N(C)CN(c3c(Cl)cccc3Cl)C4=O)ccc2C2(CC2)C1 [Example 76, 3-(2,6-dichlorophenyl)-1-methyl-7-((2′-methyl-2′,3′-dihydro-1′H-spiro[cyclopropane-1,4′-isoquinolin]-7′-yl)amino)-2,3-dihydropyrimido[4,5-d]pyrimidin-4(1H)-one]	100 to 1000	≤ 10	≥ 50
Cc1cc(Nc2ncc3c(n2)N(C)CN(c2c(Cl)cccc2Cl)C3=O)ccc1N1C[C@@H]2C[C@H]1CN2C [Example 77, 3-(2,6-dichlorophenyl)-1-methyl-7-((3-methyl-4-((1S,4S)-5-methyl-2,5-diazabicyclo[2.2.1]heptan-2-yl)phenyl)amino)-2,3-dihydropyrimido[4,5-d]pyrimidin-4(1H)-one]	100 to 1000	≤ 10	15 to 50
[2H]C([2H])([2H])N1CN(c2c(Cl)cccc2Cl)C(=O)c2cnc(Nc3ccc(N4CCN[C@H](C)C4)cc3)nc21 [Example 78, (R)-3-(2,6-dichlorophenyl)-1-d3-methyl-7-((4-(3-methylpiperazin-1-yl)phenyl)amino)-2,3-dihydropyrimido[4,5-d]pyrimidin-4(1H)-one]	100 to 1000	≤ 10	≤ 15
C[C@@H]1CN(c2ccc(Nc3ncc4c(n3)N(C)CN(c3c(Cl)cccc3Cl)C4=O)cc2)C[C@H](C)N1 [Example 83, 3-(2,6-dichlorophenyl)-7-((4-((3R,5S)-3,5-dimethylpiperazin-1-yl)phenyl)amino)-1-methyl-2,3-dihydropyrimido[4,5-d]pyrimidin-4(1H)-one]	100 to 1000	≤ 10	15 to 50
CN1CN(c2c(Cl)cccc2Cl)C(=O)c2cnc(Nc3ccc(N4CC5CCC(C4)N5C)cc3)nc21 [Example 88, 3-(2,6-dichlorophenyl)-1-methyl-7-((4-(8-methyl-3,8-diazabicyclo[3.2.1]octan-3-yl)phenyl)amino)-2,3-dihydropyrimido[4,5-d]pyrimidin-4(1H)-one]	100 to 1000	≤ 10	15 to 50
CC(C)N1CCN(c2ccc(Nc3ncc4c(n3)N(C)CN(c3c(F)cccc3Cl)C4=O)cc2CO)CC1 [Example 89, 3-(2-chloro-6-fluorophenyl)-7-((3-(hydroxymethyl)-4-(4-isopropylpiperazin-1-yl)phenyl)amino)-1-methyl-2,3-dihydropyrimido[4,5-d]pyrimidin-4(1H)-one]	100 to 1000	≤ 10	≤ 15
CN1CCC(c2ccc(Nc3ncc4c(n3)N(C)CN(c3c(Cl)cccc3Cl)C4=O)cc2)CC1 [Example 95, 3-(2,6-dichlorophenyl)-1-methyl-7-((4-(1-methylpiperidin-4-yl)phenyl)amino)-2,3-dihydropyrimido[4,5-d]pyrimidin-4(1H)-one]	100 to 1000	≤ 10	≤ 15
CN1CN(c2c(Cl)cccc2Cl)C(=O)c2cnc(Nc3ccc(N4CCNC(C)(C)C4)cc3)nc21 [Example 96, 3-(2,6-dichlorophenyl)-7-((4-(3,3-dimethylpiperazin-1-yl)phenyl)amino)-1-methyl-2,3-dihydropyrimido[4,5-d]pyrimidin-4(1H)-one]	100 to 1000	≤ 10	15 to 50
Cc1cccc(Cl)c1N1CN(C)c2nc(Nc3ccc(N4CC5CCC(C4)N5C)c(CO)c3)ncc2C1=O [Example 114, 3-(2-chloro-6-methylphenyl)-7-((3-(hydroxymethyl)-4-(8-methyl-3,8-diazabicyclo[3.2.1]octan-3-yl)phenyl)amino)-1-methyl-2,3-dihydropyrimido[4,5-d]pyrimidin-4(1H)-one]	100 to 1000	≤ 10	≤ 15
CN1CCN(c2ccc(Nc3ncc4c(n3)N(C)CN(c3c(Cl)cccc3Cl)C4=O)cc2)CC1 [Example 117, 3-(2,6-dichlorophenyl)-1-methyl-7-((4-(4-methylpiperazin-1-yl)phenyl)amino)-2,3-dihydropyrimido[4,5-d]pyrimidin-4(1H)-one]	100 to 1000	10 to 100	15 to 50
CN(C)CC(=O)N1CCN(c2ccc(Nc3ncc4c(n3)N(C)CN(c3c(Cl)cccc3Cl)C4=O)cc2)CC1 [Example 123, 3-(2,6-dichlorophenyl)-7-((4-(4-(2-(dimethylamino)acetyl)piperazin-1-yl)phenyl)amino)-1-methyl-2,3-dihydropyrimido[4,5-d]pyrimidin-4(1H)-one]	100 to 1000	≤ 10	≥ 50
